Reference: patent publication US12162867B2, “Inhibitors of RNA helicase DHX9 and uses thereof” (ACCENT THERAPEUTICS, INC., priority 2022, dated 2024)
Like-named read-outs stand apart in the source and are kept apart here.

Tests used:
Assay type in all cases: cell-based
[1] = test system: LS411N cells; assay: DHX9 cellular proliferation assay (CellTiter-Glo), LS411N (CRC-MSI); conditions: Homo sapiens, LS-411N, LS411N, performed at Pharmaron, read-out: LS411N (CRC-MSI-H) Antiproliferative IC50
[2] = test system: NCI-H747 cells; assay: DHX9 cellular proliferation assay (CellTiter-Glo), NCI-H747 (CRC-MSS); conditions: Homo sapiens, performed at Pharmaron, read-out: H747 (CRC-MSS) Antiproliferative IC50
[3] = test system: circBRIP1 in HCT116 cells; assay: DHX9 circBRIP1 cellular target engagement TaqMan Multiplex assay (qPCR); conditions: Homo sapiens, read-out: DHX9 Cellular Target Engagement EC50
[4] = HCT-116, circBRIP1, HCT116 cells, * Taqman assay was used
[5] = HCT-116, 72 h, circBRIP1, HCT116 cells, 72 hours, Taqman assay (marked *)

Compound	IC50 [1] [nM]	IC50 ([2]; NCI-H747, NCI-H747) [nM]	EC50 [3, 4] [nM]	IC50 ([1]; CRC-MSI-H) [nM]	IC50 ([2]; NCI-H747, NCI-H747, CRC-MSS) [nM]	EC50 [3, 5] [nM]
Cc1sc(C(=O)Nc2cc(Cl)cc(NS(C)(=O)=O)c2)cc1-c1ncc(N2CC(F)(F)C2)cc1OC(F)F [Example 536]	70.4	6800	49	–	–	–
Cn1cc(C(=O)Nc2cc(Cl)cc(NS(C)(=O)=O)c2)cc1-c1ncc(N2CC(F)(F)C2)cn1 [Example 597]	164	> 10000	64.8	–	–	–
CCS(=O)(=O)Nc1cc(Cl)cc(NC(=O)c2cc(-c3ncc(F)cc3OCc3cncnc3)c(C)s2)c1 [Example 623]	72.3	> 10000	11.2	–	–	–
Cn1cc(C(=O)Nc2cc(Cl)cc(NS(C)(=O)=O)c2)cc1-c1ncc(N2CC(F)C2)cc1F [Example 466]	350	4850	52.4	–	–	–
Cn1cc(C(=O)Nc2cc(Cl)cc(NS(C)(=O)=O)c2)cc1-c1ncc(N2CCC(F)(F)C2)cn1 [Example 526]	133	> 10000	29.3	–	–	–
Cc1sc(C(=O)Nc2cc(Cl)cc(NS(C)(=O)=O)c2)cc1-c1ncccc1OC(C)c1cc(F)cc(F)c1 (single isomer, unassigned) [Example 633]	10.4	6460	46	–	–	–
CC(C)(C)Oc1cnc(-c2cc(C(=O)Nc3cc(Cl)cc(NS(C)(=O)=O)c3)sc2CO)nc1 [Example 686]	132	4630	47.7	–	–	–
Cc1cc(N2CC(F)(F)C2)cnc1-c1cc(C(=O)Nc2cc(Cl)cc(NS(C)(=O)=O)c2)sc1C [Example 537]	82.8	6530	30	–	–	–
Cn1cc(C(=O)Nc2cc(Cl)cc(NS(C)(=O)=O)c2)cc1-c1ncc(N2CC(C(F)(F)F)C2)cc1F [Example 524, N-(3-chloro-5-methanesulfonamidophenyl)-5-{3-fluoro-5-[3-(trifluoromethyl)azetidin-1-yl]pyridin-2-yl}-1-methyl-1H-pyrrole-3-carboxamide]	138	6290	76.6	–	–	–
Cc1sc(C(=O)Nc2cc(Cl)cc(NS(C)(=O)=O)c2)cc1-c1ncc(OC2CCC2)cn1 [Example 452]	223	> 10000	65.3	–	–	–
CS(=O)(=O)Nc1cc(Cl)cc(NC(=O)c2cc(-c3ncc(F)cc3OCc3cncnc3)n(CC(F)(F)F)c2)c1 [Example 735]	306	> 10000	77.2	–	–	–
Cc1sc(C(=O)Nc2cc(Cl)cc(NS(C)(=O)=O)c2)cc1-c1ncc(OC(C)(C)CO)cn1 [Example 678]	391	3100	18.7	–	–	–
Cn1cc(C(=O)Nc2cc(Cl)cc(NS(C)(=O)=O)c2)cc1-c1ccc(OC(C)(C)C)cn1 [Example 555]	121	4470	46.6	–	–	–
Cc1sc(C(=O)Nc2cc(Cl)cc(NS(C)(=O)=O)c2)cc1-c1ccc(C#N)cn1 [Example 377]	–	–	–	140	> 10000	37.4
CN(C)CCOc1cnc(-c2cc(C(=O)Nc3cc(Cl)cc(NS(C)(=O)=O)c3)cn2C)c(F)c1 [Example 646]	32.5	> 10000	45.3	–	–	–
Cn1cc(C(=O)Nc2cc(Cl)cc(NS(C)(=O)=O)c2)cc1-c1ncc(N2CCC3(C2)CC3(F)F)cn1 (stereo not drawn) [Example 494]	129	> 10000	42.9	–	–	–
Cn1cc(C(=O)Nc2cc(Cl)cc(NS(C)(=O)=O)c2)cc1-c1ncc(N2CCC3(CC2)CC3(F)F)cc1F [Example 518]	203	> 10000	57.3	–	–	–
Cc1sc(C(=O)Nc2cc(Cl)cc(NS(C)(=O)=O)c2)cc1-c1ncc(OC2CN(C)C2)cn1 [Example 609, N-(3-chloro-5-methanesulfonamidophenyl)-5-methyl-4-{5-[(1-methylazetidin-3-yl)oxy]pyrimidin-2-yl}thiophene-2-carboxamide]	658	> 10000	4.7	–	–	–
Cc1sc(C(=O)Nc2cc(Cl)cc(NS(C)(=O)=O)c2)cc1-c1ncc(N2CC(F)(F)C2)cc1OC1CCC1 [Example 514]	149	> 10000	45.5	–	–	–
Cc1sc(C(=O)Nc2cc(Cl)cc(NS(C)(=O)=O)c2)cc1-c1ncc(N2CC(C(F)(F)F)C2)cn1 [Example 489]	51	2060	22.5	–	–	–

Compound	IC50 [1] [nM]	IC50 ([2]; NCI-H747, NCI-H747) [nM]	EC50 [3, 4] [nM]	IC50 ([1]; CRC-MSI-H) [nM]	IC50 ([2]; NCI-H747, NCI-H747, CRC-MSS) [nM]	EC50 [3, 5] [nM]
COc1cc(N2CC(F)(F)C2)cnc1-c1cc(C(=O)Nc2cc(Cl)cc(NS(C)(=O)=O)c2)cn1C [Example 462]	257	> 10000	25.7	–	–	–
Cc1ncc(OCc2cc(F)cc(F)c2)c(-c2cc(C(=O)Nc3cc(Cl)cc(NS(C)(=O)=O)c3)cn2C)n1 [Example 734]	10.6	6170	3	–	–	–
Cc1sc(C(=O)Nc2cc(Cl)cc(NS(C)(=O)=O)c2)cc1-c1ncc(N2CCCC(F)(F)C2)cc1F [Example 482]	66.8	1140	35.6	–	–	–
Cc1sc(C(=O)Nc2cc(Cl)cc(NS(C)(=O)=O)c2)cc1-c1ccc(OC(C)(C)C)cn1 [Example 380]	–	–	–	54.1	3620	25.1
COc1cnc(-c2cc(C(=O)Nc3cc(Cl)cc(NS(C)(=O)=O)c3)cn2C)nc1 [Example 549]	369	> 10000	48.3	–	–	–
Cc1sc(C(=O)Nc2cc(Cl)cc(NS(C)(=O)=O)c2)cc1-c1ncc(N2CC(F)(F)C2)cn1 [Example 510]	123	> 10000	16.1	–	–	–
COC(=O)N1CCN(c2cnc(-c3cc(C(=O)Nc4cc(Cl)cc(NS(C)(=O)=O)c4)sc3C)c(C)c2)CC1 [Example 601]	64.5	> 10000	106	–	–	–
CCS(=O)(=O)Nc1cc(Cl)cc(NC(=O)c2cc(-c3ncc(F)cc3OC)c(C)s2)c1 [Example 354]	–	–	–	71.5	8060	34.5
Cn1cc(C(=O)Nc2cc(Cl)cc(NS(C)(=O)=O)c2)cc1-c1ncc(N2CCC(F)(F)C2)cc1F [Example 525]	144	1350	43	–	–	–
Cc1sc(C(=O)Nc2cc(Cl)cc(NS(C)(=O)=O)c2)cc1-c1ncc(OC2CN(C)C2)cc1F [Example 635]	79.2	> 10000	19.1	–	–	–
COc1cc(N2CC(F)(F)C2)cnc1-n1cc(C(=O)Nc2cc(Cl)cc(NS(C)(=O)=O)c2)cc1C [Example 421]	114	> 10000	19.4	–	–	–
CN1C(=O)N(c2ccc(-c3cc(C(=O)Nc4cc(Cl)cc(NS(C)(=O)=O)c4)cn3C)nc2)C(=O)C1(C)C [Example 603]	1090	8370	45.8	–	–	–
COC(=O)N1CCN(c2cnc(-c3cc(C(=O)Nc4cc(Cl)cc(NS(C)(=O)=O)c4)cn3C)c(F)c2)CC1 [Example 464]	247	> 10000	17.2	–	–	–
Cn1cc(C(=O)Nc2cc(Cl)cc(NS(C)(=O)=O)c2)cc1-c1ccc(C2CCN(CC(F)(F)F)CC2)cn1 [Example 619]	178	3620	84.5	–	–	–
CCS(=O)(=O)Nc1cc(Cl)cc(NC(=O)c2cc(-c3ncc(N4CC(F)C4)cn3)c(C)s2)c1 [Example 509]	73.1	5890	17.7	–	–	–
Cn1cc(C(=O)Nc2cc(Cl)cc(NS(C)(=O)=O)c2)cc1-c1ccc(N2CC(C)(F)C2)cn1 [Example 688]	122	6360	47.5	–	–	–
CN1CC(Oc2cnc(-c3cc(C(=O)Nc4cc(Cl)cc(NS(C)(=O)=O)c4)cn3C)c(F)c2)C1 [Example 611]	133	8830	20.5	–	–	–
CCS(=O)(=O)Nc1cc(Cl)cc(NC(=O)c2cc(-c3ncc(OC(C)C)cn3)c(C)s2)c1 [Example 565]	58.2	3010	56.5	–	–	–
CS(=O)(=O)Nc1cc(Cl)cc(NC(=O)c2cc(-c3ncc(C(F)(F)F)cn3)cs2)c1 [Example 369]	–	–	–	227	> 10000	86.8
